Measured values from ChEMBL document CHEMBL5696442, “Discovery of type II inhibitors of TGFβ-activated kinase 1 (TAK1) and mitogen-activated protein kinase kinase kinase kinase 2 (MAP4K2)” (J Med Chem, 2015).

What was measured:
[1] = molecular target: MAP/microtubule affinity-regulating kinase 3 (Homo sapiens) (UniProt P27448); experiment: Inhibition of MARK3 Lys1 labeling site in human Huh-7 cell lysate at 1 uM by KiNativ Profiling analysis relative to control; assay type: subcellular
[2] = molecular target: Serine/threonine-protein kinase MARK1 (Homo sapiens) (UniProt Q9P0L2); experiment: Inhibition of MARK1 Lys2 labeling site in human A-375 cells at 5 uM by KiNativ Profiling analysis relative to control; assay type: cell-based
Serine/threonine-protein kinase MARK1 (Homo sapiens), sequence (Q9P0L2 whole entry, looked up): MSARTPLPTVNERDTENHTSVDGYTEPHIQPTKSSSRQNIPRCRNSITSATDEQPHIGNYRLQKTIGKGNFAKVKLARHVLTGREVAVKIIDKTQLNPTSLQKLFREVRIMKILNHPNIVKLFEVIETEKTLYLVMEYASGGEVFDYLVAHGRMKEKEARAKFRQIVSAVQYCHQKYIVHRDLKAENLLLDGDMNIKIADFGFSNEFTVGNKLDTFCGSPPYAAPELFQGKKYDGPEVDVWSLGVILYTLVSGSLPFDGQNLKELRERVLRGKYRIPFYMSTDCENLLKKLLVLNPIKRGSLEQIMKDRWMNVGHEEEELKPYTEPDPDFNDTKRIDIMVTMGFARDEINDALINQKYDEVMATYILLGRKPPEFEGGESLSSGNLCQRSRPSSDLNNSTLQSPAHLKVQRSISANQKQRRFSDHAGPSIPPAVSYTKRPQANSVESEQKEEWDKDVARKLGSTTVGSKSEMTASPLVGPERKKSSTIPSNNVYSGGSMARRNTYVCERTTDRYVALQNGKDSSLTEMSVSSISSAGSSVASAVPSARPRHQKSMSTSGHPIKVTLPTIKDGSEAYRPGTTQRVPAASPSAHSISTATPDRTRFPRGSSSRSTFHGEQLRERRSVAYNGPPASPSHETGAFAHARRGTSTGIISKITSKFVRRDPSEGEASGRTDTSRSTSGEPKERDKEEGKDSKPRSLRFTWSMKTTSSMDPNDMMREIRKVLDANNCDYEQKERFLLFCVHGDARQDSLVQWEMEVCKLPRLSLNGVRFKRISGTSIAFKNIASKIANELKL

[3] = molecular target: T1, Serine/threonine-protein kinase TAO2 (Homo sapiens) (UniProt Q9UL54); experiment: Inhibition of TAOK2 (unknown origin) at 1 uM by Ambit Kinomescan binding assay relative to control
T1 sequence (whole entry): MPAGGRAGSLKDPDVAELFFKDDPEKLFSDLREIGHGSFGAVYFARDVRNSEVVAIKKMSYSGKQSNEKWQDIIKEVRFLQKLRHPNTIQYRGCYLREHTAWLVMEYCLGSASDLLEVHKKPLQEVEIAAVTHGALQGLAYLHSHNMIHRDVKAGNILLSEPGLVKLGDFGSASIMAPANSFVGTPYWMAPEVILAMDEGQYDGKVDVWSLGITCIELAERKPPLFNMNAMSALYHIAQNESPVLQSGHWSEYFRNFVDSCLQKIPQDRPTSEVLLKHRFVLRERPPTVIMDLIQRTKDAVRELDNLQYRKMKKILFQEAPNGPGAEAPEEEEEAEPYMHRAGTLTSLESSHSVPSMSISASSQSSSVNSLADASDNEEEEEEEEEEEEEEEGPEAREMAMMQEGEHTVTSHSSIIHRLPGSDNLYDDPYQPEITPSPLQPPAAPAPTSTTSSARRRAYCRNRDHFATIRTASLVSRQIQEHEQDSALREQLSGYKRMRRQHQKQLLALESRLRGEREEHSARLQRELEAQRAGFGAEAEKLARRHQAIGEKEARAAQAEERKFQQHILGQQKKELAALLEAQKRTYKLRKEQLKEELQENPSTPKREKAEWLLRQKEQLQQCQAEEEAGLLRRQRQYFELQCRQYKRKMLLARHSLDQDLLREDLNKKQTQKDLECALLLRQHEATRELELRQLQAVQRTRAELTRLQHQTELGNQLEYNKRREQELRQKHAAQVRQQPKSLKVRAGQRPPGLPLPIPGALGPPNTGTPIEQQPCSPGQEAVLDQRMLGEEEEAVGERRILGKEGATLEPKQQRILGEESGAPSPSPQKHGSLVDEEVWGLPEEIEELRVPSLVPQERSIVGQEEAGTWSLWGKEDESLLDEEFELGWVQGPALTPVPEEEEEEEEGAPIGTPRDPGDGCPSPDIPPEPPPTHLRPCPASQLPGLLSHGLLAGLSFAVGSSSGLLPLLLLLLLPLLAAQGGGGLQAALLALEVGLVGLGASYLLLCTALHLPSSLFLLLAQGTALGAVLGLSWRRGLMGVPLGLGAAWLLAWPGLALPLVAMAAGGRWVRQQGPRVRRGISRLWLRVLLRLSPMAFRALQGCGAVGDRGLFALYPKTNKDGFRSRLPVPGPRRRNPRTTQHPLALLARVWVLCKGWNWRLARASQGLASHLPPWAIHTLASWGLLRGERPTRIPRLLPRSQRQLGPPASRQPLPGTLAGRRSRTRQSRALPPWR

[4] = molecular target: T2, Atrial natriuretic peptide receptor 2 (Homo sapiens) (UniProt P20594); experiment: Inhibition of ANPb Lys2 labeling site in human A-375 cells at 5 uM by KiNativ Profiling analysis relative to control; assay type: cell-based
T2 sequence (whole entry): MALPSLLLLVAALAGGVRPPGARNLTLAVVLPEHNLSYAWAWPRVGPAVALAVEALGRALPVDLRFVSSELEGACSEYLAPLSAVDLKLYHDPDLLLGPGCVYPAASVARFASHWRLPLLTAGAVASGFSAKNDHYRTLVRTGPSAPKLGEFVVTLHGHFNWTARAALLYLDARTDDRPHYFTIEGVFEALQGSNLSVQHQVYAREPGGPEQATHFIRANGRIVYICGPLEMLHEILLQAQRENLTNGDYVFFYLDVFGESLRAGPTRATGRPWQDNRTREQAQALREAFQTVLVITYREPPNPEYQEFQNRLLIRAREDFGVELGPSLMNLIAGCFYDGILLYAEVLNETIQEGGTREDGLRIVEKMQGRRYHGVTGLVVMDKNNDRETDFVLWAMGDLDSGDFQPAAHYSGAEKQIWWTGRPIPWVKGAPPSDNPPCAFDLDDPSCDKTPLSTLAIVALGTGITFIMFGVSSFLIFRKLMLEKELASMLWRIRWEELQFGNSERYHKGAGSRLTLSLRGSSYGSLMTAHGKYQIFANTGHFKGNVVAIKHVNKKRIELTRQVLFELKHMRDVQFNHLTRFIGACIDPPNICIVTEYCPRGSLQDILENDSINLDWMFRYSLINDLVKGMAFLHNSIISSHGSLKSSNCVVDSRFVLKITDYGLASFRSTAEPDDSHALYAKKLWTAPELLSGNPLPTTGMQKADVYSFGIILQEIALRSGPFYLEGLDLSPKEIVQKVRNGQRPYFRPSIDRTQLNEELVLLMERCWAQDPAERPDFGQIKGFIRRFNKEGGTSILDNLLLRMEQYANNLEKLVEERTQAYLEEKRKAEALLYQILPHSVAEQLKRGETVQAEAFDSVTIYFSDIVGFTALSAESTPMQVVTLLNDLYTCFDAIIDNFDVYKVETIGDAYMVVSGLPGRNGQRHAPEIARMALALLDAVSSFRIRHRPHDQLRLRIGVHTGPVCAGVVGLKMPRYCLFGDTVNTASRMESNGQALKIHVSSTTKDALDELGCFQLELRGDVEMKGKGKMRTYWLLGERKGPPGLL

[5] = molecular target: Epithelial discoidin domain-containing receptor 1 (Homo sapiens) (UniProt Q08345); experiment: Inhibition of DDR1 (unknown origin) at 1 uM by Ambit Kinomescan binding assay relative to control; values are per cent of control
Epithelial discoidin domain-containing receptor 1 (Homo sapiens), sequence (Q08345 whole entry, the tested form may be a part): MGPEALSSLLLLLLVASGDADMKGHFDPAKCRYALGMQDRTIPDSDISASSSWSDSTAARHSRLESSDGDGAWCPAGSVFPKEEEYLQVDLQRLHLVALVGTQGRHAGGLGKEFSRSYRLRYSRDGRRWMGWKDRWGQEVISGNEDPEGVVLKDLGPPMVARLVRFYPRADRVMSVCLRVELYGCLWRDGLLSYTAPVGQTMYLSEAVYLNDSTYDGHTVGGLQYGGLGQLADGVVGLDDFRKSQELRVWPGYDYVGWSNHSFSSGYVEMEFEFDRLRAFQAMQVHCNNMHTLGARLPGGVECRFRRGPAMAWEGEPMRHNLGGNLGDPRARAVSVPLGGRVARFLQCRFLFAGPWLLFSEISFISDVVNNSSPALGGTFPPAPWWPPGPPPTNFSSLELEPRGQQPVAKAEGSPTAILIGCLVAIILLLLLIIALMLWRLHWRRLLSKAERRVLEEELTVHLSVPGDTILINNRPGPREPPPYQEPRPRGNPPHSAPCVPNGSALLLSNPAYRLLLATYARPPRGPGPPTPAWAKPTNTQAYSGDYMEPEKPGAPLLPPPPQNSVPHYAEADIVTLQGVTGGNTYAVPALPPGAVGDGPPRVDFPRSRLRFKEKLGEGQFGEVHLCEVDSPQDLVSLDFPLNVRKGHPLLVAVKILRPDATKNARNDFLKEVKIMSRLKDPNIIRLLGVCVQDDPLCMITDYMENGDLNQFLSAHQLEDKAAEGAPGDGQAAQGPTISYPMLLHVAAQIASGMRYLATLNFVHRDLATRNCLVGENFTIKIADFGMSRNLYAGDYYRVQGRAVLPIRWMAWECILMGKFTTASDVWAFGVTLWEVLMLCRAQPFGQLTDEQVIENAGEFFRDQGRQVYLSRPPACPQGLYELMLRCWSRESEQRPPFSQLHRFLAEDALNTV

[6] = molecular target: Cyclin-dependent kinase 17 (Homo sapiens) (UniProt Q00537); experiment: Inhibition of PCTAIRE2 Lys1 labeling site harbouring SKLTENLVALKEIR in human A-375 cells at 0.05 uM by KiNativ Profiling analysis relative to control; assay type: cell-based
Cyclin-dependent kinase 17 (Homo sapiens), sequence (Q00537 whole entry, looked up): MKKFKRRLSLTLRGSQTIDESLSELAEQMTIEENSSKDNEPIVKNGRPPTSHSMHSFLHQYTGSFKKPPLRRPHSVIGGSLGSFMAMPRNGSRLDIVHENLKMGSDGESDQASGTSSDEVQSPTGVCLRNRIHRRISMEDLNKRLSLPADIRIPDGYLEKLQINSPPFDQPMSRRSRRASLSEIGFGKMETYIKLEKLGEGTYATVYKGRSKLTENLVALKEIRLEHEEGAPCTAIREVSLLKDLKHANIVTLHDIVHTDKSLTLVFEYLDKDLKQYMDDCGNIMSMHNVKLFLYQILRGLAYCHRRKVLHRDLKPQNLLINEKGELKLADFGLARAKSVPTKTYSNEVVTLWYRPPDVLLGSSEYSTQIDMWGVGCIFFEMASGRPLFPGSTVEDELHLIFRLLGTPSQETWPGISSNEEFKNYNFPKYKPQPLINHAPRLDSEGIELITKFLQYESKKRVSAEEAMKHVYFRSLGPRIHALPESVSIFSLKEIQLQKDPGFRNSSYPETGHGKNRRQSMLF

[7] = Inhibition of Wnk1/2/3 K2 labeling site in human Huh-7 cells at 10 uM by KiNativ Profiling analysis relative to control; details: condition cancer

MAP/microtubule affinity-regulating kinase 3 (Homo sapiens), sequence (P27448 whole entry, looked up): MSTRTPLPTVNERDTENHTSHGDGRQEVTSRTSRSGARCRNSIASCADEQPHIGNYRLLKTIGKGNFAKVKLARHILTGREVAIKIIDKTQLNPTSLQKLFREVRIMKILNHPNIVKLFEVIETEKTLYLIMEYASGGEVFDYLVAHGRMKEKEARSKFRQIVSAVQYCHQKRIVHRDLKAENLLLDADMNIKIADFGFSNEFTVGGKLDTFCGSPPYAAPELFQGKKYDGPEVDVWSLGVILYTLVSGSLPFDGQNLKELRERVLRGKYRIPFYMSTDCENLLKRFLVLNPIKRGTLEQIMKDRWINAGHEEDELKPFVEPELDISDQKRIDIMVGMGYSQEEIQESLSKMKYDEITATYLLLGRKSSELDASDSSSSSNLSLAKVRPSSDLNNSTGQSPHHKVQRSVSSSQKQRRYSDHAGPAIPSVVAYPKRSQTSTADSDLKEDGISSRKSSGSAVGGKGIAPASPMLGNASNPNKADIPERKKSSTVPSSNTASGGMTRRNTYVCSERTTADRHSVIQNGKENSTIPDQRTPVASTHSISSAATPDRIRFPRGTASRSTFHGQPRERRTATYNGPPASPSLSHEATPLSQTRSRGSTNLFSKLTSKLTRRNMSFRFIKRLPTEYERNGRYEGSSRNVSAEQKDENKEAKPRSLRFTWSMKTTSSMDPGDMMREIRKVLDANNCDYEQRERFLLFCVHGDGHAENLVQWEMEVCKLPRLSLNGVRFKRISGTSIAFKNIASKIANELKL

## CNc1cc(Oc2cc(C(=O)Nc3cc(N4CCN(C)CC4)cc(C(F)(F)F)c3)ccc2C)ncn1
[1]
  inhibition: 13.8%

## CCN1CCN(Cc2ccc(NC(=O)c3ccc(C)c(/C=C/c4cnc5[nH]ccc5c4OC)c3)cc2C(F)(F)F)CC1
[2]
  inhibition: 13%
[3]
  inhibition: 16%
[4]
  inhibition: -8.8%
[5]
  % of control: 0.05%

## CCN1CCN(Cc2ccc(NC(=O)c3ccc(C)c(Oc4ccnc5[nH]ccc45)c3)cc2C(F)(F)F)CC1
[6]
  inhibition: 2.5%
[7]
  inhibition at 10 µM: 7.8%
